Several values for one entry are separate records, joined by “and”; a condition that tells them apart may be missing. Identical values can stand only once. Entries after “also recorded” stand apart in the source; their conditions may differ. Like-named read-outs stand apart in the source and are kept apart here.
Assays:
HIV-1 BZ 167 [1] = format: cell-based; settings: listed as CBD1
[2] = tested on: primary HIV-1 BZ 167 isolate; format: cell-based; settings: rabbit immune serum; dilution resulting 50% inhibition of HIV-1 infection; listed as CBD1
[3] = tested on: IgG antibodies in human HIV-1 positive sera; format: binding
[4] = tested on: CBD1 peptide and CBD1- and CBM-based peptides; set-up: species or system BALB/c mice; settings: mouse, in vivo
[5] = tested on: CBD1 (C18K) and the Tet peptide; set-up: species or system cynomolgus macaques (Macaca fascicularis); settings: cynomolgus monkey, in vivo
[6] = target: CBD1, C13K, CBD1/A and C10M peptides and the CBD1-KLH Construct (Human immunodeficiency virus type 1 group M subtype B, UniProt P04578, E630Q/H625N/T626M); settings: guinea pig, in vivo
[7] = target: CBD1, C13K, CBD1/A and C10M peptides and the CBD1-KLH Construct (Human immunodeficiency virus type 1 group M subtype B, UniProt P04578); settings: guinea pig, in vivo
[8] = tested on: CBD1, C13K, CBD1/A and C10M peptides and the CBD1-KLH Construct; settings: guinea pig, in vivo
[9] = tested on: CBD1 peptide specific IFN-γ spot forming cells; set-up: species or system cynomolgus macaques (Macaca fascicularis); settings: cynomolgus monkey, in vivo
CBD1 peptide = CBD1 peptide (Human immunodeficiency virus type 1 group M subtype B, UniProt P04578, E630Q/H625N/T626M); settings: rabbits, 150 μg/injection, CFA, ten days after 5th immunization; against CBD1; reciprocal dilution giving OD450 = 0.1
HIV-1 BZ 167 [10] = format: cell-based

In the case of “C-S-L-E-Q-I-W-N-N-M-T-W-M-Q-W-D-K [C17K]”, the “Inhibition of HIV-infection” value (HIV-1 BZ 167 [1]; 50-fold dilution of guinea pig immune sera (bleeds S5), HIV-1 BZ 167, p24 at 5 days post infection) is reported as 66% and 57%, the “Inhibition of HIV infection” value (HIV-1 BZ 167 [1]; 100 fold dilution of guinea pig immune serum (bleeds S5), HIV-1 BZ 162, human CD4+ T lymphocytes) is reported as 66% and 57% and the “HIV Inhibition (ID50)” value (HIV-1 BZ 167 [1]; guinea pig immune serum, dilution resulting 50% inhibition of HIV-1 infection) is reported as 50 and <50. The “HIV Inhibition (ID50)” value [2] was 250 and 200, the “sera found to be positive in ELISA” value ([3]; another cohort of 75 HIV-1-positive individuals) was “two” and the “titer of anti-CBD1 peptide antibodies” value ([3]; listed as CBD1) was 6,400 and 12,800. The IgG2/1gG1 ratio [4] was 0.96 and 1.15, the “Titer (ELISA)” value [4] was 256,000 and 384,000 and the “ELISA C17K” value ([4]; sc) was 1.94 ± 0.28. The “ELISA K23M” value ([4]; sc) was under 0.20, the “ELISA K24W” value ([4]; sc) was under 0.20 and the “ELISA K27M” value ([4]; sc) was 2.91 ± 0.26. For the same substance, the “ELISA K27W” value ([4]; sc) was under 0.20, the “ELISA K27W(G)” value ([4]; sc) was under 0.20 and the “ELISA K30W(G)” value ([4]; sc) was under 0.20. The “ELISA against the Immunogen (OD)” value ([4]; sc) was 1.22 OD, the “ELISA p6362” value ([4]; sc) was 1.78 ± 0.22 and the “ELISA titer against C17K” value ([4]; sc) was 1.94 ± 0.45. For the same substance, the IgG2/IgG1 ratio ([4]; sc) was 1.08, the “macaques that developed high antibody titers” value [5] was “two out of the three; also recorded: one out of the three” and the “ELISA CBD1 (titer)” value [6] was 128,000. For the same substance, the “Titer (ELISA)” value [6] was 128,000 and 96,000, the “ELISA C10M (titer)” value [7] was 12,000 and the “ELISA C13K (titer)” value [8] was 128,000. For the same substance, the “ELISA CBD1/A (titer)” value [8] was 12,000 and 16,000, the “ELISA KLH (titer against the CBD1-KLH construct)” value [8] was under 200 and the IgG2/1gG1 ratio [8] was 4.10 and 3.75. The “immunized animals in each group that developed a significant level of T-cell response against the CBD1 epitope” value [9] was “one out of the three”, the “Titer (ELISA)” value (CBD1 peptide) was 768,000 and 640,000 and the “% Inhibition of HIV-1 infection at 200-fold dilution” value (HIV-1 BZ 167 [10]) was 59%. For the same substance, the “% inhibition of HIV-1 at 200-fold dilution” value (HIV-1 BZ 167 [10]) was 75%, the “HIV Inhibition (ID50)” value (HIV-1 BZ 167 [10]) was 250 and 300 and the “Neutralizing activity ID50” value (HIV-1 BZ 167 [10]) was 250-fold. The “Neutralizing activity ID50 Fold-Dilution” value (HIV-1 BZ 167 [10]) was 300-fold.
